Measurements from US20130324405A1, “NEW ANTIFUNGAL COMPOSITIONS” (DSM IP ASSETS B.V., priority 2011, published 2013).
Values joined by “and” are separate entries in the source; they are usually repeats but may differ in a detail not shown here. Equal values may be shown once.

What was measured:
[1] = tested on: Fusarium proliferatum; experiment: In vitro antifungal activity, 96-well microtiter plates; type: cell-based; settings: 5 days at 25° C.
Description: Subsequently, 100 μl of a Botrytis cinerea suspension prepared in PCB medium was used to inoculated each well with 2.5×10^3spores/ml.
After incubation of the microtiter plates for 7 at 25° C., the in vitro antifungal activity (%) of the individual active ingredients was assessed by calculating the reduction in mould growth observed in the presence of the active ingredient in comparison to the mould growth observed in the absence of the active ingredient. The expected antifungal activity (E in %) of the active ingredient combination was calculated according to the Colby equation (Colby, 1967): […]
(§1) wherein X and Y are the observed antifungal activities (in %) of the individual active ingredients X and Y, respectively. If the observed antifungal activity (O in %) of the combination exceeds the expected antifungal activity (E in %) of the combination and the resulting synergy factor O/E is thus >1.0, the combined application of the active ingredients leads to a synergistic antifungal effect.
Furthermore, Fusarium proliferatum was used for inoculation.

[2] = tested on: Fusarium proliferatum; experiment: Treatment of wounded, inoculated bananas with antifungal compositions (mould growth); type: in vivo
Description: Four organic, unripe (green) bananas were used per treatment. The peel of each banana was wounded thrice using a cork borer according to the method described by de Lapeyre de Bellaire and Dubois (1987). Subsequently, each wound was inoculated with 15 μl of a Fusarium proliferatum suspension containing 1×10^5 of spores/ml. […] In addition, the antifungal compositions comprised 1.00% (w/w) methylhydroxyethylcellulose (MHEC), 0.40% (w/w) xanthan gum, 0.20% (w/w) anti-foaming agent, 0.30% (w/w) citric acid, 0.39% (w/w) lactic acid and 0.11% (w/w) potassium sorbate. The pH of the composition was 4.
The treated, unripe bananas were incubated in a closed box in the dark at 20° C. and a relative air humidity of 95%, which was obtained in the presence of a saturated Na2HPO4 aqueous solution. A ripe (yellow) banana was included in the closed box to elevate the ethylene gas level and thus induce ripening of the treated, unripe bananas.
The expected antifungal activity (E in %) of the combined antifungal composition comprising both active ingredients was calculated according to the Colby equation (Colby, 1967): […]
as §1, with “the” for “the resulting”

[3] = tested on: Botrytis cinerea; experiment: In vitro antifungal activity, 96-well microtiter plates; type: cell-based; settings: 0.63 ppm natamycin, 25 ppm cyazofamid, 50 ppm fenamidone, or natamycin plus one of these, 7 days at 25° C.
Description: Subsequently, 100 μl of a Botrytis cinerea suspension prepared in PCB medium was used to inoculated each well with 2.5×10^3spores/ml. […] The expected antifungal activity (E in %) of the active ingredient combination was calculated according to the Colby equation (Colby, 1967): […] wherein X and Y are the observed antifungal activities (in %) of the individual active ingredients X and Y, respectively.

[4] = tested on: Botrytis cinerea; experiment: Treatment of wounded, inoculated strawberries by dipping in antifungal compositions (mould growth); type: in vivo; settings: for Observed antifungal activity O (%): strawberries
Description: Twelve fresh, organic strawberries were used per treatment. Each strawberry was wounded with a 0.5 mm long cut and each wound was inoculated with 10 μl of a Botrytis cinerea suspension containing 1×10^5 of spores/ml. […] The antifungal composition also comprised 1.00% (w/w) methylhydroxyethylcellulose (MHEC), 0.40% (w/w) xanthan gum, 0.20% (w/w) anti-foaming agent, 0.30% (w/w) citric acid, 0.39% (w/w) lactic acid and 0.11% (w/w) potassium sorbate. The pH of the composition was 4.
The treated strawberries were incubated in a closed box in the dark at 20° C. […]. […] The expected antifungal activity (E in %) of the combined antifungal composition comprising both active ingredients was calculated according to the Colby equation (Colby, 1967): […]
as §1, with “the” for “the resulting”
The treated strawberries were assessed on mould growth after 3, 4, 5, 7, 8 and 9 days of incubation according to the two methods described in Example 6.

[5] = 2.5 ppm natamycin, 50 ppm cyazofamid or both
[6] = 250 ppm natamycin, 500 ppm cyazofamid or both, 27 days at 20° C.
[7] = 500 ppm natamycin, 2000 ppm cyazofamid or both, 21 days at 20° C.
[8] = 500 ppm natamycin, 2000 ppm cyazofamid or both, 23 days at 20° C.
[9] = 500 ppm natamycin, 2000 ppm cyazofamid or both, 24 days at 20° C.
[10] = 50 ppm natamycin, 250 ppm fenamidone or both, Day 3 at 20° C.
[11] = 50 ppm natamycin, 250 ppm fenamidone or both, Day 4 at 20° C.
[12] = 50 ppm natamycin, 250 ppm fenamidone or both, Day 5 at 20° C.
[13] = 500 ppm natamycin, 1000 ppm fenamidone or both, Day 3 at 20° C.
[14] = 500 ppm natamycin, 1000 ppm fenamidone or both, Day 5 at 20° C.
[15] = 50 ppm natamycin, 250 ppm fenamidone or both, 3 days at 20° C.
[16] = 50 ppm natamycin, 250 ppm fenamidone or both, 4 days at 20° C.
[17] = 50 ppm natamycin, 250 ppm fenamidone or both, 5 days at 20° C.
[18] = 50 ppm natamycin, 250 ppm fenamidone or both, 7 days at 20° C.
[19] = 50 ppm natamycin, 250 ppm fenamidone or both, 8 days at 20° C.
[20] = 50 ppm natamycin, 250 ppm fenamidone or both, 9 days at 20° C.
[21] = 500 ppm natamycin, 1000 ppm fenamidone or both, 3 days at 20° C.
[22] = 500 ppm natamycin, 1000 ppm fenamidone or both, 4 days at 20° C.
[23] = 500 ppm natamycin, 1000 ppm fenamidone or both, 5 days at 20° C.
[24] = 500 ppm natamycin, 1000 ppm fenamidone or both, 7 days at 20° C.
[25] = 500 ppm natamycin, 1000 ppm fenamidone or both, 8 days at 20° C.
[26] = 500 ppm natamycin, 1000 ppm fenamidone or both, 9 days at 20° C.

Compound | Observed antifungal activity O (%) [1, 5] [%] | Observed antifungal activity O (%) [2, 6] [%] | Observed antifungal activity O (%) [2, 7] [%] | Observed antifungal activity O (%) [2, 8] [%] | Observed antifungal activity O (%) [2, 9] [%] | Observed antifungal activity O (%) [3] [%] | Number of moulded strawberries/total number of 12 strawberries [4, 10] | Number of moulded strawberries/total number of 12 strawberries [4, 11] | Number of moulded strawberries/total number of 12 strawberries [4, 12] | Number of moulded strawberries/total number of 12 strawberries [4, 13] | Number of moulded strawberries/total number of 12 strawberries [4, 14] | Observed antifungal activity O (%) [4, 15] [%] | Observed antifungal activity O (%) [4, 16] [%] | Observed antifungal activity O (%) [4, 17] [%] | Observed antifungal activity O (%) [4, 18] [%] | Observed antifungal activity O (%) [4, 19] [%] | Observed antifungal activity O (%) [4, 20] [%] | Observed antifungal activity O (%) [4, 21] [%] | Observed antifungal activity O (%) [4, 22] [%] | Observed antifungal activity O (%) [4, 23] [%] | other results
Cc1ccc(-c2c(Cl)nc(C#N)n2S(=O)(=O)N(C)C)cc1 [Cyazofamid, cyazofamid] | 0 | 1 | 0 | 0 | 0 | 0 | – | – | – | – | – | – | – | – | – | – | – | – | – | – | Observed antifungal activity O (%) ([1]; 75 ppm cyazofamid alone or with 2.5 ppm natamycin): 0%; Observed antifungal activity O (%) ([2]; 50 ppm natamycin, 250 ppm cyazofamid or both, 27 days at 20° C.): 0%
CSC1=N[C@@](C)(c2ccccc2)C(=O)N1Nc1ccccc1 [Fenamidone, fenamidone] | – | – | – | – | – | 0 | 12 and 12/12 | 12 and 12/12 | 12 and 12/12 | 12 and 12/12 | 12 and 12/12 | 0 | 0 | 0 | 0 | 0 | 0 | 9 | 0 | 0 | Observed antifungal activity O (%) [4, 24]: 0%; Observed antifungal activity O (%) [4, 25]: 0%; Observed antifungal activity O (%) [4, 26]: 0%
C[C@@H]1C/C=C/C=C/C=C/C=C/[C@H](O[C@@H]2O[C@H](C)[C@@H](O)[C@H](N)[C@@H]2O)C[C@@H]2O[C@](O)(C[C@@H](O)C[C@H]3O[C@@H]3/C=C/C(=O)O1)C[C@H](O)[C@H]2C(=O)O [Natamycin, natamycin] | 0 | 4 | 94 | 86 | 84 | 0 | 3 and 3/12 | 5 and 5/12 | 10 and 10/12 | 3 and 3/12 | 11 and 11/12 | 64 | 50 | 17 | 17 | 10 | 0 | 75 | 69 | 31 | Observed antifungal activity O (%) [4, 24]: 13%; Observed antifungal activity O (%) [4, 25]: 0%; Observed antifungal activity O (%) [4, 26]: 0%
